According to US8613914B2, “Peptidomimetic sulfamide compounds and antiviral uses thereof” (Novartis AG, priority 2009, dated 2013):

These compounds were tested against HCV NS3-4A serine protease (full-length NS3-4A protein) (Hepatitis C virus genotype 1a (isolate 1) (HCV), UniProt P26664) (assay: HCV NS3-4A protease assay). Settings: strain HCV-1, fluorogenic peptide substrate, read-out: Protease assay Ex. 12 IC50.
Type: biochemical, HCV genotype 1a
Experimental: The inhibitory activity of certain compounds of Table A against HCV NS3-4A serine protease is determined in a homogenous assay using the full-length NS3-4A protein (genotype 1a, strain HCV-1) and a commercially available internally-quenched fluorogenic peptide substrate as described by Taliani, M., et al. 1996 Anal. Biochem. 240:60-67, which is incorporated by reference in its entirety.

Sequence of HCV NS3-4A serine protease (full-length NS3-4A protein) (P26664 1027-1657): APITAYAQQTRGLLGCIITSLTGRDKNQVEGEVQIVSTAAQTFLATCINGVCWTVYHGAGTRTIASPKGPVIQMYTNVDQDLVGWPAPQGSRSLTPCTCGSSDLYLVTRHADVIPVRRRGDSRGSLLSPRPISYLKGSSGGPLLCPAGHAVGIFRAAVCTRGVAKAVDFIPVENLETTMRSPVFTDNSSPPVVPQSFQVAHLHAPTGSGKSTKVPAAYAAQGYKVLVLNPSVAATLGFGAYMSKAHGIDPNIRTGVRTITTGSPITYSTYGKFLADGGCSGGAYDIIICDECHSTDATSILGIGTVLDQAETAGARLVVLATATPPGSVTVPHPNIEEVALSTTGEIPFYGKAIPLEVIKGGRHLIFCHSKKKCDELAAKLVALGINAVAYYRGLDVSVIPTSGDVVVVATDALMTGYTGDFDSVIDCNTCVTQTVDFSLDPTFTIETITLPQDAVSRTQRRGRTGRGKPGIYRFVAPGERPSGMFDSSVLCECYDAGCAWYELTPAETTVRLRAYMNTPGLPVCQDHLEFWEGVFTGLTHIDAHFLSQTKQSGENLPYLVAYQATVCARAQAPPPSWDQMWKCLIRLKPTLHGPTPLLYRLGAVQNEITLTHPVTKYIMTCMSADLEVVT
Sequence of HCV NS3-4A serine protease (full-length NS3-4A protein) (P26664 1658-1711 partner): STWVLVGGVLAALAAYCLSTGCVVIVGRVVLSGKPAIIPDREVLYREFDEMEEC

Question: With `C=C[C@@H]1C[C@]1(NC(=O)[C@@H]1C[C@@]2(CN1C(=O)[C@@H](NC(=O)[C@@H](NC(=O)[C@H]1CCN1C(C)C)C(C)(C)C)C(C)(C)C)C(C)(C)C21CCC1)C(=O)NS(=O)(=O)N1CCCC1` [Compound 22, (5R,8S)-7-[(2S)-2-{[(2S)-2-({[(2R)-1-isopropylazetidin-2-yl]carbonyl}amino)-3,3-dimethylbutanoyl]amino}-3,3-dimethylbutanoyl]-10,10-dimethyl-N-{(1R,2S)-1-[(pyrrolidin-1-ylsulfonyl)carbamoyl]-2-vinylcyclopropyl}-7-azadispiro[3.0.4.1]decane-8-carboxamide] as the compound, how does the IC50 read?
Answer: 0.095 µM

Question: Which IC50 does the source give for `C=C[C@@H]1C[C@]1(NC(=O)[C@@H]1C[C@@]2(CN1C(=O)[C@@H](NC(=O)CC1(CC(N)=O)CCCCC1)C(C)(C)C)C(C)(C)C21CCC1)C(=O)NS(=O)(=O)N1CCCC1` [Compound 60, (5R,8S)-7-[(2S)-2-({[1-(2-amino-2-oxoethyl)cyclohexyl]acetyl}amino)-3,3-dimethylbutanoyl]-10,10-dimethyl-N-{(1R,2S)-1-[(pyrrolidin-1-ylsulfonyl)carbamoyl]-2-vinylcyclopropyl}-7-azadispiro[3.0.4.1]decane-8-carboxamide] here?
Answer: 1.25 µM

Question: `C=C[C@@H]1C[C@]1(NC(=O)[C@@H]1C[C@@]2(CN1C(=O)[C@@H](NC(=O)[C@@H](NC(=O)[C@@H]1CCCCN1C(C)C)C1CCCCC1)C(C)(C)C)C(C)(C)C21CCC1)C(=O)NS(=O)(=O)N(C)C1CC1` [Compound 53, (5R,8S)-7-[(2S)-2-{[(2S)-2-cyclohexyl-2-({[(2S)-1-isopropylpiperidin-2-yl]carbonyl}amino)acetyl]amino}-3,3-dimethylbutanoyl]-N-[(1R,2S)-1-({[cyclopropyl(methyl)amino]sulfonyl}carbamoyl)-2-vinylcyclopropyl]-10,10-dimethyl-7-azadispiro[3.0.4.1]decane-8-carboxamide] was tested. Which IC50 did it give?
Answer: 0.0017 µM

Question: How did the IC50 turn out when `C=C[C@@H]1C[C@]1(NC(=O)[C@@H]1C[C@@]2(CN1C(=O)[C@@H](NC(=O)CC1(CC#N)CCCCC1)C(C)(C)C)C(C)(C)C21CCC1)C(=O)NS(=O)(=O)N1CCCC1` [Compound 61, (5R,8S)-7-[(2S)-2-({[1-(cyanomethyl)cyclohexyl]acetyl}amino)-3,3-dimethylbutanoyl]-10,10-dimethyl-N-{(1R,2S)-1-[(pyrrolidin-1-ylsulfonyl)carbamoyl]-2-vinylcyclopropyl}-7-azadispiro[3.0.4.1]decane-8-carboxamide] was run?
Answer: 0.75 µM

Question: With `C=C[C@@H]1C[C@]1(NC(=O)[C@@H]1C[C@@]2(CN1C(=O)[C@@H](NC(=O)[C@@H](NC(=O)[C@@H]1CCCCN1C(C)C)C1CCCCC1)C(C)(C)C)C(C)(C)C21CCC1)C(=O)NS(=O)(=O)N(C)CCC` [Compound 112, (5R,8S)-7-[(2S)-2-{[(2S)-2-cyclohexyl-2-({[(2S)-1-isopropylpiperidin-2-yl]carbonyl}amino)acetyl]amino}-3,3-dimethylbutanoyl]-10,10-dimethyl-N-[(1R,2S)-1-({[methyl(propyl)amino]sulfonyl}carbamoyl)-2-vinylcyclopropyl]-7-azadispiro[3.0.4.1]decane-8-carboxamide] as the compound, how does the IC50 read?
Answer: 0.0014 µM

Question: How did the IC50 turn out when `[2H]C([2H])([2H])N(C([2H])([2H])[2H])S(=O)(=O)NC(=O)[C@@]1(NC(=O)[C@@H]2C[C@@]3(CN2C(=O)[C@@H](NC(=O)[C@@H](NC(=O)[C@@H]2CCCCN2C(C)C)C2CCCCC2)C(C)(C)C)C(C)(C)C32CCC2)C[C@H]1C=C` [Compound 148, (5R,8S)-7-[(2S)-2-{[(2S)-2-cyclohexyl-2-({[(2S)-1-isopropylpiperidin-2-yl]carbonyl}amino)acetyl]amino}-3,3-dimethylbutanoyl]-N-[(1R,2S)-1-{[(d6-dimethylamino)sulfonyl]carbamoyl}-2-vinylcyclopropyl]-10,10-dimethyl-7-azadispiro[3.0.4.1]decane-8-carboxamide-d6] was run?
Answer: 0.0008 µM

Question: For `C=C[C@@H]1C[C@]1(NC(=O)[C@@H]1C[C@@]2(CN1C(=O)[C@@H](NC(=O)[C@@H](NC(=O)[C@@H]1CCCN1CC)C1CCCCC1)C(C)(C)C)C(C)(C)C21CCC1)C(=O)NS(=O)(=O)N(CC)CC` [Compound 63, (5R,8S)-7-[(2S)-2-{[(2S)-2-cyclohexyl-2-({[(2S)-1-ethylpyrrolidin-2-yl]carbonyl}amino)acetyl]amino}-3,3-dimethylbutanoyl]-N-[(1R,2S)-1-{[(diethylamino)sulfonyl]carbamoyl}-2-vinylcyclopropyl]-10,10-dimethyl-7-azadispiro[3.0.4.1]decane-8-carboxamide], which IC50 is on record?
Answer: 0.0012 µM

Question: `C=C[C@@H]1C[C@]1(NC(=O)[C@@H]1C[C@@]2(CN1C(=O)[C@@H](NC(=O)OC(C)(C)C)C(C)(C)C)C(C)(C)C21CCC1)C(=O)NS(=O)(=O)N1CCCC1` [Compound 1, tert-butyl [(1S)-1-{[(5R,8S)-10,10-dimethyl-8-({(1R,2S)-1-[(pyrrolidin-1-ylsulfonyl)carbamoyl]-2-vinylcyclopropyl}carbamoyl)-7-azadispiro[3.0.4.1]dec-7-yl]carbonyl}-2,2-dimethylpropyl]carbamate] was tested. Which IC50 did it give?
Answer: 0.4 µM

Question: `C=C[C@@H]1C[C@]1(NC(=O)C1C[C@@]2(CN1C(=O)[C@@H](NC(=O)[C@@H](NC(=O)[C@@H]1CCCCN1C(C)C)C(C)(C)C)C1CCOCC1)C(C)(C)C21CCC1)C(=O)NS(=O)(=O)N1CCCC1` (stereo partly drawn) [Compound 67, (5R)-7-[(2S)-2-[(N-{[(2S)-1-isopropylpiperidin-2-yl]carbonyl}-3-methyl-L-valyl)amino]-2-(tetrahydro-2H-pyran-4-yl)acetyl]-10,10-dimethyl-N-{(1R,2S)-1-[(pyrrolidin-1-ylsulfonyl)carbamoyl]-2-vinylcyclopropyl}-7-azadispiro[3.0.4.1]decane-8-carboxamide] was tested. Which IC50 did it give?
Answer: 0.02 µM

Question: Which IC50 does the source give for `C=C[C@@H]1C[C@]1(NC(=O)C1C[C@@]2(CN1C(=O)[C@@H](NC(=O)C1CCCNC1=O)C(C)(C)C)C(C)(C)C21CCC1)C(=O)NS(=O)(=O)N1CCCC1` (stereo partly drawn) [Compound 78, (5R)-7-[(2S)-3,3-dimethyl-2-{[(2-oxopiperidin-3-yl)carbonyl]amino}butanoyl]-10,10-dimethyl-N-{(1R,2S)-1-[(pyrrolidin-1-ylsulfonyl)carbamoyl]-2-vinylcyclopropyl}-7-azadispiro[3.0.4.1]decane-8-carboxamide] here?
Answer: 0.65 µM

Question: For `C=C[C@@H]1C[C@]1(NC(=O)[C@@H]1C[C@@]2(CN1C(=O)[C@@H](NC(=O)[C@@H](NC(=O)[C@@H]1CCCN1C(=O)OCCF)C1CCCCC1)C1CCOCC1)C(C)(C)C21CCC1)C(=O)NS(=O)(=O)N1CCCC1` [Compound 76, 2-fluoroethyl(2S)-2-{[(1S)-1-cyclohexyl-2-{[(1S)-2-[(5R,8S)-10,10-dimethyl-8-({(1R,2S)-1-[(pyrrolidin-1-ylsulfonyl)carbamoyl]-2-vinylcyclopropyl}carbamoyl)-7-azadispiro[3.0.4.1]dec-7-yl]-2-oxo-1-(tetrahydro-2H-pyran-4-yl)ethyl]amino}-2-oxoethyl]carbamoyl}pyrrolidine-1-carboxylate], which IC50 is on record?
Answer: 0.08 µM

Question: `C=C[C@@H]1C[C@]1(NC(=O)[C@@H]1C[C@@]2(CN1C(=O)[C@@H](NC(=O)[C@@H](NC(=O)c1cnc(C)cn1)C1CCCCC1)C(C)(C)C)C(C)(C)C21CCC1)C(=O)NS(=O)(=O)N1CCCC1` [Compound 199, (5R,8S)-7-{(2S)-2-[(cyclohexyl{[(5-methylpyrazin-2-yl)carbonyl]amino}acetyl)amino]-3,3-dimethylbutanoyl}-10,10-dimethyl-N-{(1R,2S)-1-[(pyrrolidin-1-ylsulfonyl)carbamoyl]-2-vinylcyclopropyl}-7-azadispiro[3.0.4.1]decane-8-carboxamide] was tested. Which IC50 did it give?
Answer: 0.014 µM

Question: With `C=C[C@@H]1C[C@]1(NC(=O)[C@@H]1C[C@@]2(CN1C(=O)[C@@H](NC(=O)[C@@H](NC(=O)[C@@H]1CCCN1CC)C(C)(C)C)C1(C)CCOCC1)C(C)(C)C21CCC1)C(=O)NS(=O)(=O)N1CCCC1` [Compound 126, 1-ethyl-L-prolyl-N-[(1S)-2-[(5R,8S)-10,10-dimethyl-8-({(1R,2S)-1-[(pyrrolidin-1-ylsulfonyl)carbamoyl]-2-vinylcyclopropyl}carbamoyl)-7-azadispiro[3.0.4.1]dec-7-yl]-1-(4-methyltetrahydro-2H-pyran-4-yl)-2-oxoethyl]-3-methyl-L-valinamide] as the compound, how does the IC50 read?
Answer: 0.006 µM

Question: For `C=C[C@@H]1C[C@]1(NC(=O)[C@@H]1C[C@@]2(CN1C(=O)[C@@H](NC(=O)[C@@H](NC(=O)[C@H]1CCCCN1C(C)C)C1CCCCC1)C(C)(C)C)C(C)(C)C21CCC1)C(=O)NS(=O)(=O)N1CCCCC1` [Compound 115, (5R,8S)-7-[(2S)-2-{[(2S)-2-cyclohexyl-2-({[(2R)-1-isopropylpiperidin-2-yl]carbonyl}amino)acetyl]amino}-3,3-dimethylbutanoyl]-10,10-dimethyl-N-{(1R,2S)-1-[(piperidin-1-ylsulfonyl)carbamoyl]-2-vinylcyclopropyl}-7-azadispiro[3.0.4.1]decane-8-carboxamide], which IC50 is on record?
Answer: 0.0045 µM

Question: For `C=C[C@@H]1C[C@]1(NC(=O)[C@@H]1C[C@@]2(CN1C(=O)[C@@H](NC(=O)[C@@H](NC(=O)c1c[nH]c3ccccc13)C1CCCCC1)C(C)(C)C)C(C)(C)C21CCC1)C(=O)NS(=O)(=O)N1CCCC1` [Compound 189, (5R,8S)-7-[(2S)-2-({cyclohexyl[(1H-indol-3-ylcarbonyl)amino]acetyl}amino)-3,3-dimethylbutanoyl]-10,10-dimethyl-N-{(1R,2S)-1-[(pyrrolidin-1-ylsulfonyl)carbamoyl]-2-vinylcyclopropyl}-7-azadispiro[3.0.4.1]decane-8-carboxamide], which IC50 is on record?
Answer: 0.025 µM
